Experimental data from patent US9585929B2 (ZHEJIANG KANGLAITE GROUP CO., LTD., priority 2014, dated 2017).
Values after ≈ are worked out from the molar mass of the structure shown. Counter-ions that a name gives are not always drawn. Marks after values point to notes of the source that are not given here. Blank lines part the entries; values can stand above or below the molecule they belong to.

Assays:
SMMC-7721 human hepatoma = experiment: Xenograft model of SMMC-7721 human hepatoma inoculated subcutaneously in nude mice; assay type: in vivo
Experimental: A549 Human lung cancer cells cryopreserved in liquid nitrogen were recovered, and incubated in a 37 incubator under 5% CO2. After being subcultured, cells in a logarithmic growth stage were distributed with normal saline to be a cell suspension in a concentration of 1-2×10^7 cells/ml. The cell suspension was inoculated into BALB/C nude mice (SPF grade, 18-20 g, 6 weeks old, male) subcutaneously at right axillary. The tumor tissues were aseptically taken from the 2nd generation of xenograft model of A549 human lung cancer in a vigorous growth stage and cut into small uniform pieces in the size of 1-2 mm^3. The right axillary of each nude mouse was inoculated one piece subcutaneously via a trocar. When the inoculated tumor could be touched, the mice were randomly grouped and administered according to the experimental design program. […] The nude mice were fed in a laminar flow rack. Tumor sizes and animal weights were observed and tested dynamically. Mice in each group were sacrificed 3 weeks later or so, and tumors were surgically removed and weighed. The inhibition rate on tumor was calculated according to the following formula: Inhibition rate %=[(Mean tumor weight of the control group−mean tumor weight of the treatment group)/mean tumor weight of the control group]×100%;
(§10) Q value of antitumor effect in drug combination was calculated according to Jin's formula: Q=Ea+b/(Ea+Eb−Ea×Eb) Wherein Ea+b=the tumor inhibition rate of drug combination, Ea or Eb=the tumor inhibition rate of drug A or drug B, respectively. If Q value=0.85-1.15, an additive effect (+) was shown; if Q value>1.15, a synergistic effect (++) was shown.

[1] = system: PANC-1 human pancreatic cancer; experiment: PANC-1 human pancreatic cancer model in nude mice; assay type: in vivo, BALB/C nude mice; settings: Gemcitabine 60 mg/kg iv × 1
Experimental: as §10
PANC-1 human pancreatic cancer cells: inoculated in BALB/C nude mice, 16-18 g, female
Tumor blocks of well-grown PANC-1 human pancreatic cancer were inoculated subcutaneously in 4-week-old female BALB/C nude mice. The nude mice were grouped randomly and administered. One week after the end of the administration, the mice were sacrificed and dissected. Tumor blocks were taken out and weighed. Differences of tumor weight between each experimental group and the control group were compared and the tumor inhibition rates were calculated.

[2] = system: FC-3M human prostate cancer; experiment: FC-3M human prostate cancer model in nude mice; assay type: in vivo, BALB/C nude mice
Experimental: The injection of the invention (10 g/100 ml), Leuprolide acetate (Lupron) and normal saline
Tumor blocks of well-grown FC-3M human prostate cancer were homogenized in normal saline (1:4). Each nude mouse was inoculated with 0.2 ml of the suspension at the right axilla subcutaneously, and the mice were grouped randomly. The administration began from the next day. 21 Days after the inoculation, the mice were sacrificed. Tumor blocks were taken out and weighed. Differences of tumor weight between each experimental group and the control group were compared and the tumor inhibition rates were calculated.

S180 sarcoma = S180 sarcoma model in mice; assay type: in vivo, Kunmin mice
Experimental: The injection of the invention (10 g/100 ml), Cyclophosphamide (CTX), Mitoxantrone (DHAD), Mitomycin (MMC) and normal saline
Ascitic fluid of mice having well-grown […] sarcoma was diluted with normal saline (1:4) to obtain a cell suspension of about 1-2×10^7 cells/ml. Each mouse was inoculated with 0.2 ml of the suspension subcutaneously at the right axilla, and the mice were grouped randomly. The administration began from the next day according to the dosage program in Table 7. On the tenth day after the inoculation of S180, animals were sacrificed via cervical dislocation and dissected to take out the tumor block. Weights of tumor were compared and inhibition rates were calculated for each group.

[3] = system: H460 (human lung cancer cells); experiment: MTT inhibition of tumor cell growth in vitro; assay type: cell-based; settings: NCI-H460
Experimental: (§1) The inhibition effects of samples on the above-mentioned cell lines were detected by using MTT method. The specific procedures were as follows:
(§2) (1) Cell culture: (a) Storaged cells were taken out from the liquid nitrogen, thawed quickly in a 37 water bath, then aseptically transferred into 6 ml of cellular medium in a 10 ml centrifugal tube, centrifuged at 1000 rpm for 5 min. The supernatant was discarded, then the precipitated cells were re-suspensed in 5-6 ml cellular media by pipetting and transferred into a flask in a 37 incubator for cell culture; (b) Next day, the flask was taken out from the incubator and the used medium was discarded, then the cells were incubated in 5-6 ml fresh medium in the 37 incubator; (c) On the third day, the flask was taken out from the incubator and the used medium was discarded, then 2-3 ml of PBS (pH7.4) was added into the flask with rocking for cleaning it and the used PBS was discarded. Such a cellular cleaning step was repeated once again. 3-5 drops of 0.25% trypsin solution were added into the flask with sloshing, thus well-distributed in it. The flask was capped and placed in a 37 incubator for about 3 min, and the separation of cells from the flask wall was observed under the microscope. 2 ml of cellular medium was added and cells were separated completely from the flask wall by pipetting, then the cell suspension was transferred into 2 separate clean flasks, each containing 5-6 ml medium. The cell suspension was well-distributed by pipetting, then the flask was placed in a 37 incubator. (d) Step (c) was repeated every other day. In the whole cultivation process, adherent cells were not allowed to grow too dense and suspension cells were always maintained at a logarithmic growth stage.
(§3) This solution was diluted in a gradient dilution with PBS to obtain a set of sample solutions in the concentration of 10 mg/ml, 5000 μg/ml, 2500 μg/ml, 1250 μg/ml, 625 μg/ml and 312.5 μg/ml, respectively.
(§4) (3) Each diluted sample solution was added into duplicated wells of a 96 well flat-bottom microplate (10 μl/well). The correspondingly diluted DMSO solutions, as controls, were added into the wells of the microplate.
(§5) (4) Cells in a logarithmic growth stage were trypsinized and washed, then re-suspended in the medium containing 10% calf serum. The number of living cells was counted in Trypan blue dye exclusion method and cell suspensions were adjusted into a density of 2×10^5 cell/ml.
(§6) (5) The cell-contained 96 well flat-bottom microplate was placed in a 37 incubator and cells were incubated under 5% CO2 for 48 h.
(§7) (6) 20 μl of 5 mg/ml MTT solution was added into each well and cells were incubated continuously in the incubator for 3-4 h.
(§8) (7) 100 μl of crystal dissolving solution was added into each well and cells were incubated continuously in the incubator overnight, so as to dissolve the resulted formazan crystals sufficiently. Then, the absorbance value was measured at 570 nm for each well.
(§9) (8) Based on absorbance values, inhibition rates on the cell growth were calculated for sample groups of various concentrations. The calculation formula was as follows: (1−mean absorbance of experimental wells/mean absorbance of control wells)×100%

[4] = system: PANC-1 (human pancreatic cancer cells); experiment: MTT inhibition of tumor cell growth in vitro; assay type: cell-based
Experimental: as §1, §2, §3, §4, §5, §6, §7, §8, §9

[5] = system: HepG-2 (human hepatic cancer cells); experiment: MTT inhibition of tumor cell growth in vitro; assay type: cell-based; settings: HepG2
Experimental: as §1, §2, §3, §4, §5, §6, §7, §8, §9

[6] = system: MCF-7 (human breast cancer cells); experiment: MTT inhibition of tumor cell growth in vitro; assay type: cell-based; settings: MCF7
Experimental: as §1, §2, §3, §4, §5, §6, §7, §8, §9

[7] = system: SMMC-7721 (human hepatic cancer cells); experiment: MTT inhibition of tumor cell growth in vitro; assay type: cell-based
Experimental: as §1, §2, §3, §4, §5, §6, §7, §8, §9

[8] = system: SKOV3 (human ovarian cancer cells); experiment: MTT inhibition of tumor cell growth in vitro; assay type: cell-based; settings: SK-OV-3
Experimental: as §1, §2, §3, §4, §5, §6, §7, §8, §9

[9] = system: A549 (human lung cancer cells); experiment: MTT inhibition of tumor cell growth in vitro; assay type: cell-based
Experimental: as §1, §2, §3, §4, §5, §6, §7, §8, §9

[10] = system: Bcap-37 (human breast cancer cells); experiment: MTT inhibition of tumor cell growth in vitro; assay type: cell-based; settings: Bcap37
Experimental: as §1, §2, §3, §4, §5, §6, §7, §8, §9

[11] = system: MDA-MB-435 human breast cancer; experiment: MDA-MB-435 human breast cancer model in nude mice; assay type: in vivo, BALB/C nude mice; settings: Paclitaxel 50 mg/kg ip × 1
Experimental: Each nude mouse was inoculated with 0.2 ml of the suspension at the right axilla subcutaneously, and the mice were grouped randomly. The administration began from the 7th day after the inoculation. 18 Days after the inoculation, the mice were sacrificed. Tumor blocks were taken out and weighed. Differences of tumor weight between each experimental group and the control group were compared, and tumor inhibition rates and Q values were calculated.

W256 cancer sarcoma = W256 cancer sarcoma model in rats; assay type: in vivo, Wistar rats
Experimental: The injection of the invention (10 g/100 ml), Cyclophosphamide (CTX) and normal saline
W256 cancer sarcoma: inoculated in Wistar rats, 50-60 g, female
Ascitic fluid of rats with well-grown W256 cancer sarcoma was diluted with normal saline to obtain a cell suspension of about 1-2×10^7 cells/ml. Each rat was inoculated with 0.2 ml of the suspension at the right axilla subcutaneously. The rats were grouped randomly next day and began administration. Two weeks later, animals were sacrificed and dissected to take out the tumor block. Weights of tumor were compared between each experimental group and the control group and tumor inhibition rates were calculated.

LM-3 human hepatoma = experiment: Xenograft model of LM-3 human hepatoma inoculated subcutaneously in nude mice
Experimental: The injection of the invention (10 g/100 ml), cyclophosphamide (Jiangsu Hengrui Medicine Co., Ltd), blank fat emulsion and normal saline

[12] = Gemcitabine 25 mg/kg iv × 3 q 3 d
[13] = Gemcitabine 50 mg/kg iv × 3 q 3 d
[14] = cyclophosphamide 15 mg/kg ip × 7 qd
[15] = cyclophosphamide 30 mg/kg ip × 7 qd

- Weight of animal end (SMMC-7721 human hepatoma; [12]): 25.1 g
- Weight of animal start (SMMC-7721 human hepatoma; [12]): 20.1 g
- Weight of animal end (SMMC-7721 human hepatoma; [13]): 24.2 g
SMILES: Nc1ccn([C@@H]2O[C@H](CO)[C@@H](O)C2(F)F)c(=O)n1 [Gemcitabine, gemcitabine hydrochloride]
- Inhibition rate (SMMC-7721 human hepatoma; [12]): 49.14%
- Weight of tumor x ± SD (SMMC-7721 human hepatoma; [12]): 0.886 ± 0.24 g
- Inhibition rate (SMMC-7721 human hepatoma; [13]): 87.66%
- Weight of tumor x ± SD (SMMC-7721 human hepatoma; [13]): 0.215 ± 0.11 g
- Inhibition rate [1]: 24.61%
- Weight of tumor x ± SD [1]: 0.1443 ± 0.081 g

SMILES: CCNC(=O)[C@@H]1CCCN1C(=O)[C@H](CCCNC(=N)N)NC(=O)[C@H](CC(C)C)NC(=O)[C@@H](CC(C)C)NC(=O)[C@H](Cc1ccc(O)cc1)NC(=O)[C@H](CO)NC(=O)[C@H](Cc1c[nH]c2ccccc12)NC(=O)[C@H](Cc1c[nH]cn1)NC(=O)[C@@H]1CCC(=O)N1 [Lupron, Leuprolide acetate]
- Inhibition rate ([2]; Lupron 0.75 ml/kg iv × 1): 36.36** %
- Weight of tumor x ± SD ([2]; Lupron 0.75 ml/kg iv × 1): 0.98 ± 0.23 g
- Inhibition rate ([2]; Lupron 1.5 ml/kg iv × 1): 50.65** %
- Weight of tumor x ± SD ([2]; Lupron 1.5 ml/kg iv × 1): 0.76 ± 0.14 g

SMILES: CO[C@@]12[C@H](COC(N)=O)C3=C(C(=O)C(C)=C(N)C3=O)N1C[C@@H]1N[C@@H]12 [MMC, Mitomycin]
- Inhibition rate (S180 sarcoma; MMC 1.5 mg/kg ip × 2(1, 3)): 38.61* %
- Weight of tumor x ± SD (S180 sarcoma; MMC 1.5 mg/kg ip × 2(1, 3)): 0.97 ± 0.19 g

- IC50 [3]: 0.49 µg/mL (≈ 0.574 µM)
- IC50 [4]: 0.44 µg/mL (≈ 0.515 µM)
- IC50 [5]: 0.45 µg/mL (≈ 0.527 µM)
- IC50 [6]: 0.18 µg/mL (≈ 0.211 µM)
- IC50 [7]: 0.41 µg/mL (≈ 0.48 µM)
- IC50 [8]: 0.22 µg/mL (≈ 0.258 µM)
- IC50 [9]: 0.46 µg/mL (≈ 0.539 µM)
- IC50 [10]: 0.28 µg/mL (≈ 0.328 µM)
SMILES: CC(=O)O[C@H]1C(=O)[C@@]2(C)[C@H]([C@H](OC(=O)c3ccccc3)[C@]3(O)C[C@H](OC(=O)[C@H](O)[C@@H](NC(=O)c4ccccc4)c4ccccc4)C(C)=C1C3(C)C)[C@]1(OC(C)=O)CO[C@@H]1C[C@@H]2O [Taxol, paclitaxel]
- Inhibition rate [11]: 62.87%

SMILES: O=P1(N(CCCl)CCCl)NCCCO1 (centres unmarked) [cyclophosphamide, Cyclophosphamide]
- Inhibition rate (W256 cancer sarcoma; CTX 10 mg/kg iv × 2(3, 5)): 37.83* %
- Weight of tumor x ± SD (W256 cancer sarcoma; CTX 10 mg/kg iv × 2(3, 5)): 2.12 ± 1.22 g
- Inhibition rate (W256 cancer sarcoma; CTX 30 mg/kg iv × 7): 87.68** %
- Weight of tumor x ± SD (W256 cancer sarcoma; CTX 30 mg/kg iv × 7): 0.42 ± 0.85 g
- Inhibition rate (S180 sarcoma; CTX 30 mg/kg ip × 2(1, 3)): 41.77* %
- Weight of tumor x ± SD (S180 sarcoma; CTX 30 mg/kg ip × 2(1, 3)): 0.92 ± 0.21 g
- Inhibition rate (LM-3 human hepatoma; [14]): 27.82%
- Weight of animal end (LM-3 human hepatoma; [14]): 24.8 g
- Weight of animal start (LM-3 human hepatoma; [14]): 20.7 g
- Weight of tumor x ± SD (LM-3 human hepatoma; [14]): 1.108 ± 0.09 g
- Inhibition rate (LM-3 human hepatoma; [15]): 82.74%
- Weight of animal end (LM-3 human hepatoma; [15]): 25.0 g
- Weight of animal start (LM-3 human hepatoma; [15]): 20.5 g
- Weight of tumor x ± SD (LM-3 human hepatoma; [15]): 0.265 ± 0.12 g
